Assay results reported in patent US9795140B2, “Molecules having pesticidal utility, and intermediates, compositions, and processes, related thereto” (priority 2015, dated 2017).

Tests used:
Type in all cases: in vivo
[1] = test system: Beet Armyworm (Spodoptera exigua, LAPHEG); experiment: Bioassay on Beet Armyworm (BAW), 128-well diet tray assay; settings: 168 h, 50 μg/cm^2 on artificial diet, second instar larvae, 25° C., five to seven days, average of eight wells, read-out: BAW % Control (or Mortality) rating
Method in brief: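 Diet tray, 8 wells/compound; 50 μg/cm^2 applied to diet surface (90:10 acetone-water), dried. 1–5 L2 larvae/well; 25° C., 14:10 L:D, 5–7 d. Read-out: % mortality, mean of 8 wells.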

[2] = test system: Yellow Fever Mosquito (Aedes aegypti, AEDSAE); experiment: Bioassay on Yellow Fever Mosquito (YFM) larvae, 96-well plate; settings: about 1 day-old larvae, room temperature, 3 days, scored on mortality
Method in brief: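 Aedes aegypti larvae (about 1 day old) in liver-powder water were added to plates dispensed from DMSO master plates (4000 ppm stock) diluted with 90:10 water/acetone; six replicate plates per master. Lidded plates were held at room temperature for 3 days, then each well was scored for mortality.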

[3] = test system: Cabbage Looper (Trichoplusia ni, TRIPNI); experiment: Bioassay on Cabbage Looper (CL), 128-well diet tray assay; settings: 168 h, 50 μg/cm^2 on artificial diet, second instar larvae, 25° C., five to seven days, average of eight wells, read-out: CL % Control (or Mortality) rating
Method in brief: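 Percent larval mortality, averaged across eight replicate wells, was scored after 5–7 days at 25 °C with a 14:10 photoperiod. Each well held 1 mL diet surface-treated at 50 μg/cm^2 with test molecule from a 90:10 acetone-water solution, then dried. Wells were infested with one to five second-instar cabbage loopers.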

Structure (SMILES) | mortality at 50 µg/cm2 [1] [%] | YFM % Control (or Mortality) rating [2] | mortality at 50 µg/cm2 [3] [%]
O=C(NCCF)c1cc(NC(=O)[C@H]2[C@H](c3cc(Cl)cc(Cl)c3)C2(Cl)Cl)cc(Cl)c1Cl (relative stereo) [F92, trans-2,3-Dichloro-5-(2,2-dichloro-3-(3,5-dichlorophenyl)cyclopropane-1-carboxamido)-N-(2-fluoroethyl)benzamide] | 50 to 100 | A (80-100) | 50 to 100
CCCN(C)C(=O)c1cc(NC(=O)[C@H]2[C@H](c3cc(Cl)cc(Cl)c3)C2(Cl)Cl)ccc1Cl (relative stereo) [F62, trans-2-Chloro-5-(2,2-dichloro-3-(3,5-dichlorophenyl)cyclopropane-1-carboxamido)-N-methyl-N-propylbenzamide] | 50 to 100 | D (No activity noticed in this bioassay) | 50 to 100
O=C(NCC(F)(F)F)c1cc(NC(=O)[C@H]2[C@H](c3cccc(C(F)F)c3)C2(Cl)Cl)ccc1Cl (relative stereo) [F134, 2-Chloro-5-(trans-2,2-dichloro-3-(3-(difluoromethyl)phenyl)cyclopropane-1-carboxamido)-N-(2,2,2-trifluoroethyl)benzamide] | 50 to 100 | A (80-100) | 50 to 100
O=C(NCCCCl)c1cc(NC(=O)[C@H]2[C@H](c3cc(Cl)cc(Cl)c3)C2(Cl)Cl)ccc1Cl (relative stereo) [F57, trans-2-Chloro-N-(3-chloropropyl)-5-(2,2-dichloro-3-(3,5-dichlorophenyl)cyclopropane-1-carboxamido)benzamide] | 50 to 100 | D (No activity noticed in this bioassay) | 50 to 100
CN(CC1CC1)C(=O)c1cc(NC(=O)[C@H]2[C@H](c3cc(Cl)cc(Cl)c3)C2(Cl)Cl)ccc1Cl (relative stereo) [F69, trans-2-Chloro-N-(cyclopropylmethyl)-5-(2,2-dichloro-3-(3,5-dichlorophenyl)cyclopropane-1-carboxamido)-N-methylbenzamide] | 50 to 100 | D (No activity noticed in this bioassay) | 50 to 100
O=C(NCCF)c1cc(NC(=O)[C@H]2[C@H](c3ccc(F)c(Cl)c3)C2(Cl)Cl)ccc1Cl (relative stereo) [F104, trans-2-Chloro-5-(2,2-dichloro-3-(3-chloro-4-fluorophenyl)cyclopropane-1-carboxamido)-N-(2-fluoroethyl)benzamide] | 50 to 100 | A (80-100) | 50 to 100
CCCNC(=O)c1cc(NC(=O)[C@H]2[C@H](c3ccc(F)c(Cl)c3)C2(Cl)Cl)ccc1Cl (relative stereo) [F106, trans-2-Chloro-5-(2,2-dichloro-3-(3-chloro-4-fluorophenyl)cyclopropane-1-carboxamido)-N-propylbenzamide] | 50 to 100 | A (80-100) | 50 to 100
C[C@H](C[S+]([O-])CCC(F)(F)F)NC(=O)c1cc(NC(=O)C2C(c3cc(Cl)cc(Cl)c3)C2(Cl)Cl)ccc1Cl (stereo in doubt) [PF5, trans-2-Chloro-5-(2,2-dichloro-3-(3,5-dichlorophenyl)cyclopropane-1-carboxamido)-N-((2R)-1-((3,3,3-trifluoropropyl)sulfinyl)propan-2-yl)benzamide] | 50 to 100 | A (80-100) | 50 to 100
O=C(NCC(F)(F)F)c1cc(NC(=O)[C@H]2[C@H](c3ccc(F)c(C(F)F)c3)C2(Cl)Cl)ccc1Cl (relative stereo) [F131, 2-Chloro-5-(trans-2,2-dichloro-3-(3-(difluoromethyl)-4-fluorophenyl)cyclopropane-1-carboxamido)-N-(2,2,2-trifluoroethyl)benzamide] | 50 to 100 | A (80-100) | 50 to 100
O=C(NCC(F)(F)F)c1cc(NC(=O)C2C(c3cc(F)c(F)c(F)c3)C2(Cl)Cl)ccc1Cl (stereo not drawn) [F126, 2-Chloro-5-trans-(2,2-dichloro-3-(3,4,5-trifluorophenyl)cyclopropane-1-carboxamido)-N-(2,2,2-trifluoroethyl)benzamide] | 50 to 100 | A (80-100) | 50 to 100
O=C(NCC(F)(F)F)c1cc(NC(=O)[C@H]2[C@H](c3ccc(F)c(Cl)c3)C2(Cl)Cl)ccc1Cl (relative stereo) [F105, trans-2-Chloro-5-(2,2-dichloro-3-(3-chloro-4-fluorophenyl)cyclopropane-1-carboxamido)-N-(2,2,2-trifluoroethyl)benzamide] | 50 to 100 | A (80-100) | 50 to 100
CCCNC(=O)c1cc(NC(=O)[C@H]2[C@H](c3cc(Cl)c(OC)c(Cl)c3)C2(Cl)Cl)ccc1Cl (relative stereo) [F84, trans-2-Chloro-5-(2,2-dichloro-3-(3,5-dichloro-4-methoxyphenyl)cyclopropane-1-carboxamido)-N-propylbenzamide] | 50 to 100 | D (No activity noticed in this bioassay) | 50 to 100
O=C(Nc1ccc(Cl)c(C(=O)N2CCC(F)(F)C2)c1)[C@H]1[C@H](c2cc(Cl)cc(Cl)c2)C1(Cl)Cl (relative stereo) [F71, trans-2,2-Dichloro-N-(4-chloro-3-(3,3-difluoropyrrolidine-1-carbonyl)phenyl)-3-(3,5-dichlorophenyl)cyclopropane-1-carboxamide] | 50 to 100 | D (No activity noticed in this bioassay) | 50 to 100
CSCCNC(=O)c1cc(NC(=O)[C@H]2[C@H](c3cc(Cl)cc(Cl)c3)C2(Cl)Cl)ccc1Cl (relative stereo) [F52, trans-2-Chloro-5-(2,2-dichloro-3-(3,5-dichlorophenyl)cyclopropane-1-carboxamido)-N-(2-(methylthio)ethyl)benzamide] | 50 to 100 | B (More than 0-Less than 80) | 50 to 100
O=C(NCC1CC(F)(F)C1)c1cc(NC(=O)[C@H]2[C@H](c3cc(Cl)cc(Cl)c3)C2(Cl)Cl)ccc1Cl (relative stereo) [F70, trans-2-Chloro-5-(2,2-dichloro-3-(3,5-dichlorophenyl)cyclopropane-1-carboxamido)-N-((3,3-difluorocyclobutyl)methyl)benzamide] | 50 to 100 | D (No activity noticed in this bioassay) | 50 to 100
COc1c(F)cc(C2C(C(=O)Nc3ccc(Cl)c(C(=O)NCC(F)(F)F)c3)C2(Cl)Cl)cc1F (stereo not drawn) [F125, 2-Chloro-5-trans-(2,2-dichloro-3-(3,5-difluoro-4-methoxyphenyl)cyclopropane-1-carboxamido)-N-(2,2,2-trifluoroethyl)benzamide] | 50 to 100 | A (80-100) | 50 to 100
O=C(NCC(F)(F)F)c1cc(NC(=O)[C@H]2[C@H](c3ccc(C(F)(F)F)c(Br)c3)C2(Cl)Cl)ccc1Cl (relative stereo) [F114, 5-(trans-3-(3-Bromo-4-(trifluoromethyl)phenyl)-2,2-dichlorocyclopropane-1-carboxamido)-2-chloro-N-(2,2,2-trifluoroethyl)benzamide] | 50 to 100 | A (80-100) | 50 to 100
O=C(NCC(F)(F)F)c1cc(NC(=O)[C@H]2[C@H](c3cc(F)cc(C(F)F)c3)C2(Cl)Cl)ccc1Cl (relative stereo) [F130, 2-Chloro-5-(trans-2,2-dichloro-3-(3-(difluoromethyl)-5-fluorophenyl)cyclopropane-1-carboxamido)-N-(2,2,2-trifluoroethyl)benzamide] | 50 to 100 | A (80-100) | 50 to 100
O=C(NCCc1csc2ccccc12)c1cc(NC(=O)[C@H]2[C@H](c3cc(Cl)cc(Cl)c3)C2(Cl)Cl)ccc1Cl (relative stereo) [PF15, trans-N-(2-(Benzo[b]thiophen-3-yl)ethyl)-2-chloro-5-(2,2-dichloro-3-(3,5-dichlorophenyl)cyclopropane-1-carboxamido)benzamide] | 50 to 100 | A (80-100) | 50 to 100
O=C(NCCC1CC1)c1cc(NC(=O)C2C(c3cc(Cl)c(Cl)c(Cl)c3)C2(Cl)Cl)ccc1Cl (stereo not drawn) [F26, trans-N-2-Chloro-N-(2-cyclopropylethyl)-5-(2,2-dichloro-3-(3,4,5-trichlorophenyl)cyclopropane-1-carboxamido)benzamide] | 50 to 100 | A (80-100) | 50 to 100
O=C(NCC(F)(F)F)c1cc(NC(=O)[C@H]2[C@H](c3cc(F)cc(Br)c3)C2(Cl)Cl)ccc1Cl (relative stereo) [F123, 5-(trans-3-(3-Bromo-5-fluorophenyl)-2,2-dichlorocyclopropane-1-carboxamido)-2-chloro-N-(2,2,2-trifluoroethyl)benzamide] | 50 to 100 | A (80-100) | 50 to 100
